Laboratory results taken from publication PMC7693775, “AGTR1 Is Overexpressed in Neuroendocrine Neoplasms, Regulates Secretion and May Potentially Serve as a Target for Molecular Imaging and Therapy” (Cancers, 2020).
Read-outs that look alike come from different tables or passages of the source.

Columns and labels:
[1] = system: BON cells; format: cell-based, human; conditions: for effect on ATII-induced calcium signal: BON cells, preincubation 15-30 min before ATII (valsartan, PD123319: 1 µM)
[2] = target: T1, AGTR1 (Homo sapiens, UniProt P30556); assay: competition binding with 125I-ATII, BON cells
T1 sequence (P30556 1-359): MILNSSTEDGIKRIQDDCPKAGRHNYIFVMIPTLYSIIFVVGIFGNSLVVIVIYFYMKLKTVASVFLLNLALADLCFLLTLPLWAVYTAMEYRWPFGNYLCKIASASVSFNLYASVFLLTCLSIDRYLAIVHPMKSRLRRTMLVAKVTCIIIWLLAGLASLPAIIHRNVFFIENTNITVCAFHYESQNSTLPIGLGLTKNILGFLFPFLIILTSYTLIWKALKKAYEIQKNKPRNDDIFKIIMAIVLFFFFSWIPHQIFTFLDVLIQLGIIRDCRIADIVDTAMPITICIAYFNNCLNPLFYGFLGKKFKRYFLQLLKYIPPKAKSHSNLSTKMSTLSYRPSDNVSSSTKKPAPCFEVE
Protocol: (§1) The Boc-protected ITCC dye (69 mg) was dissolved in DCM (3.0 mL) and subjected to deprotection by addition of TFA (300 µL). The reaction mixture was stirred for 2 h, the solvent removed under reduced pressure and the mixture codistilled with DCM several times to remove […]
(§2) TFA. […] MS (ESI): C39H51N4NaO7S2
(§3) 2.2 eq.) and DIPEA (7.2 µL, 42 µmol, 4.7 eq.) and the reaction mixture stirred for 1 h. The deprotected ITCC dye (8.0 mg, 9.0 µmol, 1.0 eq.) was dissolved in DMF (125 µL) with DIPEA (3.6 µL, 21 µmol, 2.3 eq.) and added to the reaction mixture which was stirred for additional 17 h. The mixture was precipitated from Et2O and the precipitate purified via flash chromatography (DCM/MeOH) to afford […]
(§4) Peptide iodination was performed as previously described [ 1 ].
(§5) (Sigma, Deisenhofen, Germany) were iodinated with 1 mCi carrier -free Na 125 I (NEZ033L010MC, Perkin Elmer, Waltham, MA, USA) and purified by HPLC (Analyt ic HPLC 1200 Series, Agilent, Santa Clara, CA, USA; see Figure S1 in supplementary material). The method for the competitive binding assay was described in detail before. For saturation experiments, binding buffer was prepared […]
(§6) of additional unlabeled peptide (total binding). Non -specific binding was subtracted from total binding to obtain spec ific binding. […]

[3] = target: T1, AGTR1; assay: competition binding with 125I-ATII, H727 cells
Protocol: as §1, §2, §3, §4, §5, §6

[4] = system: H727 cells; assay: intracellular calcium mobilization assay; format: cell-based, human; conditions: preincubation 15-30 min before ATII (valsartan, PD123319: 1 µM)
Protocol: (§7) If not indicated otherwise, cell culture reagents were obtained from Biochrom AG (Berlin, Germany). The human NEN cell lines BON and QGP-1 (pancreatic), LCC-18 (colonic), H727 and UMC-11 (pulmonary) and all other cell lines were cultured in RPMI 1640 supplemented with 10 % fetal calf serum in a humidified atmosphere at 37 °C and 5% CO2. BON cells were a kind gift of Courtney Townsend (University of Texas, Galveston, TX, USA). LCC-18 were kindly donated by Kjell Ö berg (University of Uppsala, Uppsala, Sweden) and KRJ-1 by Dr. Irvin Modlin (Yale University, New Haven, CT, USA). QGP-1 were obtained from the Japanese Collection of Research Bioresources.
(§8) All other cell lines were obtained from Cell Line Services (Heidelberg, Germany), DSMZ (Braunschweig, Germany) or ATCC (Manassas, VA, USA). Cells were cultured for no more than 20 passages. Mycoplasma testing was done at least every six months. Cell lines were authenticated by STR analysis at DSMZ (Braunschweig, Germany). Due to the lack of reference profiles for BON and LCC-18, their respective STR profile was characterized as unique and not contamina ted with any […]
(§9) Table 1. STR profiling data for BON and LCC -18 cells.
(§10) Experiments in 96-well format were performed as previously described (18). […]

[5] = target: T2, ATII receptor (AGTR1, AGTR2) (Homo sapiens, UniProt P30556); assay: in vitro receptor autoradiography of tissue cryosections; format: binding; conditions: 1 µM competitor
T2 construct: Consecutive cryosections of each tissue were incubated with the radioligand in the absence or presence of an excess of non-labeled ATII; from tissue; host or cells: flash-frozen cryosections of patient pancreatic and small-intestinal NEN and of control pancreas, small intestine and liver
T2 sequence (P30556 1-359): T1 sequence (P30556 1-359)

[6] = target: T3, ATII receptor (AGTR1, AGTR2) (Homo sapiens, UniProt P50052); assay: as above; format: binding; conditions: normal pancreas; 1 µM competitor
T3 construct: Consecutive cryosections of each tissue were incubated with the radioligand in the absence or presence of an excess of non-labeled ATII; from tissue; host or cells: flash-frozen cryosections of patient pancreatic and small-intestinal NEN and of control pancreas, small intestine and liver
T3 sequence (P50052 1-363): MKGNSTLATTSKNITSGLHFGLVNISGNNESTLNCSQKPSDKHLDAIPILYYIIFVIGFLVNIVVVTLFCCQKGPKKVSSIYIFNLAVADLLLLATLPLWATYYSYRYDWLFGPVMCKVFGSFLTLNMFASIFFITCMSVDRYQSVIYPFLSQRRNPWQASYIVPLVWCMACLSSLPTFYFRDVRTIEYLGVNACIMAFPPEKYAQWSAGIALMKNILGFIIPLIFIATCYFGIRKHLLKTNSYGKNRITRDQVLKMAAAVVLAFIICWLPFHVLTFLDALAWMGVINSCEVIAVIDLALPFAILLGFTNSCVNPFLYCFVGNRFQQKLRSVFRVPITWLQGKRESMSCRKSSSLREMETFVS

[7] = system: BON cells; assay: serotonin ELISA of cell supernatants; format: cell-based, human; conditions: 1 µM, 6 h
Protocol: as §7, §8, §9, §10

[8] = system: AGTR1-positive BON tumors; assay: in vivo near-infrared fluorescent imaging, xenograft; design: species or system mice
Protocol: seeded with 15,000/50,000 cells per well.
(§11) free medium for 10 min at room tem perature. A buffer baseline was obtained on the dynamic mass
(§12) used and plotted with GraphPad Prism 5.04.
(§13) For in vivo receptor targeting, the near -infrared fluorescent
(§14) in 100 µ L 0.9 % NaCl per animal).
(§15) fluorescence intensities.
(§16) animal research authorities.
First Linear Peptidic Urotensin -II Receptor Agonist. J. Med. Chem. 2016 , 59, 10100–10112,

[9] = system: receptor negative QGP-1 tumors; conditions: 1 nmol i.v., NIRF imaging
Protocol: as §11, §12, §13, §14, §15, §16
J. Med. Chem. 2016 , 59, 10100–10112,

[10] = system: BON cells; assay: chromogranin A ELISA of cell supernatants; format: cell-based, human; conditions: 10 µM preincubation 15 min, 100 nM ATII
Protocol: as §7, §8, §9, §10

[11] = system: BON cells; assay: metabolic activity (AlamarBlue); format: cell-based, human; conditions: 96 h, different concentrations
Protocol: (§17) filter paper and measured in a gamma counter. Additional tissue sections were stained with hematoxylin and eosin for comparison with the corresponding autoradiograms.
as §7, with “Bioresources. […]” for “Bioresources.”
(§18) Cells were seeded in quadruplicates at a density of 5,000 cells in 50 µ L medium per well in 96 well plates, grown overnight and treated with the indicated ligand concentrations (on top of the well, final volume 100 µ L). After 96 h, metabolic activity was determined by addition of 100 µ L medium containing AlamarBlue™ redox indicator (Thermo Fisher, Waltham, MA, US) to each well. After 3 –4 h, the resulting fluorescence was measured with an EnVision Multilabel Plate Reader (Perkin Elmer, Waltham, USA). […]

[12] = system: H727 cells; assay: metabolic activity (AlamarBlue); format: cell-based, human; conditions: 96 h, different concentrations
Protocol: as §17
as §7, with “Bioresources. […]” for “Bioresources.”
as §18

[13] = target: AGTR1; design: method as in PMID 25313325; conditions: read-out: published Ki; cited from earlier work
[14] = target: angiotensin II (Homo sapiens), P01019; assay: competition
[15] = target: angiotensin II (Homo sapiens), P01019; assay: competition; remark: listed apart in the source
[16] = target: 125I-angiotensin II (Homo sapiens), P01019; assay: radioligand
Sequence of 125I-angiotensin II (Homo sapiens), P01019 (P01019 whole entry, looked up): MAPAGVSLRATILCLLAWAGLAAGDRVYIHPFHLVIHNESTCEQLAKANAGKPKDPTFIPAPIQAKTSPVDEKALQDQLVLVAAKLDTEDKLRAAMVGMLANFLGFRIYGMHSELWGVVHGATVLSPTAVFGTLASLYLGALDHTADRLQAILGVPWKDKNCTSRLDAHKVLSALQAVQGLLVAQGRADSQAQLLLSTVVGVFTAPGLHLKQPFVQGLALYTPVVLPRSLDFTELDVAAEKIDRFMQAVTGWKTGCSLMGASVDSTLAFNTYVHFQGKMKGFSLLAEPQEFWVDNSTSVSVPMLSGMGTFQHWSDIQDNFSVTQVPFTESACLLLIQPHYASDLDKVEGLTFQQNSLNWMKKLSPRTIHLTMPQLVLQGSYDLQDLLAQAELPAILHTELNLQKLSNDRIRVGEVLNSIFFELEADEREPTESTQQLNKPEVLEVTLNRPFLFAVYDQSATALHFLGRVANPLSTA

Sequence of angiotensin II (Homo sapiens), P01019 (P01019 whole entry, looked up): as above

CC[C@H](C)[C@H](NC(=O)[C@H](Cc1ccc(O)cc1)NC(=O)[C@@H](NC(=O)[C@H](CCCNC(=N)N)NC(=O)[C@@H](N)CC(=O)O)C(C)C)C(=O)N[C@@H](Cc1c[nH]cn1)C(=O)N1CCC[C@H]1C(=O)N[C@@H](Cc1ccccc1)C(=O)O [ATII, angiotensin II]
EC50 ([1]; 24 h): 4900 ± 5200 pM

Cc1cc(Cn2cnc3c2C[C@@H](C(=O)O)N(C(=O)C(c2ccccc2)c2ccccc2)C3)ccc1N(C)C [PD123319]
effect on ATII-induced calcium signal [1]: did not influence | displacement of 125I-ATII binding [2]: not | displacement of 125I-ATII binding [3]: not | effect on ATII-induced calcium signal [4]: did not influence | displacement of 125I-ATII binding ([5]; pancreatic NEN tissues #1, #4, #6, #8): not | displacement of 125I-ATII binding ([5]; small-intestinal NEN tissues): unable to compete | displacement of 125I-ATII binding [6]: displaced

CCOc1nc2cccc(C(=O)O)c2n1Cc1ccc(-c2ccccc2-c2nc(=O)o[nH]2)cc1 [azilsartan]
serotonin (5HT) secretion [7]: did not modify

CC(C)[C@H](NC(=O)[C@H](CCCNC(=N)N)NC(=O)CN(C)C(=O)CCC(=O)NCCCOCCOCCOCCCNC(=O)c1ccc2c(c1)C(C)(C)C(=CC=CC=CC=CC1=[N+](CCCCS(=O)(=O)[O-])c3ccccc3C1(C)C)N2CCCCS(=O)(=O)O)C(=O)N[C@@H](Cc1ccc(O)cc1)C(=O)N[C@H](C(=O)N[C@@H](Cc1c[nH]cn1)C(=O)N1CCC[C@H]1C(=O)N[C@@H](C)C(=O)O)C(C)C [saralasin–ITCC]
decrease of affinity by ITCC versus published Ki of saralasin [2]: 250 fold | accumulation in AGTR1-positive xenograft tumors ([8]; 1 nmol i.v., NIRF imaging): selective accumulation | ex vivo organ imaging ([8]; 6 hours after injection): accumulation in kidneys and liver | uptake in QGP-1 tumors [9]: Low non-significant uptake

CCCCC(=O)N(Cc1ccc(-c2ccccc2-c2nnn[nH]2)cc1)[C@H](C(=O)O)C(C)C [valsartan]
effect on ATII-induced calcium signal [1]: significantly diminish | effect on ATII-induced calcium signal [4]: significantly diminish | effect on ATII-stimulated CgA secretion [10]: diminished | serotonin (5HT) secretion [7]: did not modify | metabolic activity [11]: no change | metabolic activity [12]: no change

saralasin
Ki [13]: 1000 pM

B1: Angiotensin II receptor type 1, P30556 (protein)
chain: T1 sequence (P30556 1-359)
Ki [14]: 100 pM | Ki [15]: 200 pM | Kd [16]: 600 pM
